Read-outs that look alike come from different tables or passages of the source.
Legend:
cathepsin L = target: T1, cathepsin L (Homo sapiens, UniProt P07711); assay: Cathepsin L enzymatic assay; format: biochemical
T1 construct: purchased RD Systems 952-CY-010
Method: The assays contained 25 pM cathepsin L (RD Systems: 952-CY-010), 5 µM LR-AMC, 100 nL of test compound in 100% DMSO, in a total of 10 µL of 20 mM potassium phosphate, pH 6.0, 150 mM NaCl, 0.005% Tween20, and 5 mM DTT in black low volume 384-well plates. The production of AMC was followed at 5-min intervals with excitation at 355 nm and emission at 460 nm using an Envision microplate reader (PerkinElmer). Reaction rates were determined by linear regression of the resulting progress curves. […] Nonlinear regression fits of the data to a one-site dose-response curve were performed using XLFit (IDBS).

cathepsin B = target: T2, cathepsin B (Homo sapiens, UniProt P07858); assay: Cathepsin B enzymatic assay; format: biochemical
T2 construct: purchased RD Systems 953-CY-010
Method: Assays contained 0.6 nM cathepsin B (RD Systems: 953-CY-010), 25 µM Z-LR-AMC, and 100 nL of test compound in 100% DMSO in a total of 10 µL of 50 mM MES, pH 5.0, 150 mM NaCl, 0.05% CHAPS, and 5 mM DTT in black low volume 384-well plates. The production of AMC was followed at 5-min intervals at 355 nm excitation and 460 nm emission in an Envision microplate reader (PerkinElmer). Reaction rates were determined by linear regression of the resulting progress curves. Rates were normalized to percent inhibition, where 0% is equal to the rate in the presence enzyme, and 100% is equal to the rate in the absence of enzyme. Nonlinear regression fits of the data to a one-site dose-response curve were performed using XLFit (IDBS).

thrombin = target: T3, thrombin (Homo sapiens, UniProt P00734); assay: Thrombin enzymatic assay; format: biochemical
T3 construct: purchased RD Systems 1473-SE-010
Method: Assays contained 25 pM thrombin (RD Systems: 1473-SE-010), 25 µM BOC-PVR-AMC, and 100 nL of test compound in 100% DMSO, in a total of 10 µL of 50 mM Tris, pH 7.0, 100 mM NaCl, 10 mM CaCl2, and 0.005% Tween20 in black low volume 384-well plates. The production of AMC was followed at 5-min intervals at 355 nm excitation and 460 nm emission in an Envision microplate reader (PerkinElmer). Reaction rates were determined by linear regression of the resulting progress curves. […] Nonlinear regression fits of the data to a one-site dose-response curve were performed using XLFit (IDBS).

[1] = Mouse liver microsome stability assay; settings: microsomes
Method: Test compounds (0.5 µM) were incubated with liver microsomes ([…]) and an NADPH-regenerating system (cofactor solution), and samples were taken at various time points, quenched with an acetonitrile solution containing an internal standard, and then analyzed by liquid chromatography with tandem mass spectrometry (LC-MS/MS). […] For the 0-min time point, 135 µL of acetonitrile (ACN) containing internal standard (IS) was added to the wells of a 0-min plate, followed by the addition of 15 µL of NADPH stock solution (6 mM). All other plates were pre-incubated at 37°C for 5 min. Fifteen microliters of NADPH stock solution (6 mM) was then added to the plates to start the reaction and timing. […] Fifty microliters of supernatant was then transferred from each well into a 96-well sample plate containing 50 µL of ultra-pure water for LC/MS analysis.

[2] = tested on: SARS-CoV-2 (B.1.1.529/Omicron); settings: for mean reduction in SARS-CoV-2 genomic RNA (E gene) in lung tissue: 1 at 100 mg/kg, PF-332 at 50 mg/kg i.p. b.i.d.
[3] = tested on: SARS-CoV-2 Beta (B.1.351); assay: microbe, parasite or virus in culture; format: cell-based; settings: Severe acute respiratory syndrome coronavirus 2, Vero C1008, 48 h; read-out: EC50 viral high-content imaging assay
SARS-CoV-2 WT (WA1/2020) = assay: Live virus high-content imaging assay (nucleocapsid expression), WT; format: cell-based; settings: Severe acute respiratory syndrome coronavirus 2, Vero C1008, Vero-E6 cells, 48 h infection, read-out: EC50 viral high-content imaging assay
[4] = tested on: SARS-CoV-2 Omicron (B.1.1.529); assay: microbe, parasite or virus in culture; format: cell-based; settings: Severe acute respiratory syndrome coronavirus 2, Vero C1008, 48 h; read-out: EC50 viral high-content imaging assay
[5] = Hamster pharmacokinetics (plasma and lung); format: in vivo
Method: Fig 10 […] pharmacokinetics of 1. Mean plasma and lung concentration-time profiles of compound 1 after single i.p. dose at 10 mg/kg in male hamster (N = 3/time point). In-life parameters of compound 1 are provided for plasma and lung.
To monitor pharmacokinetics of compound 1 following single intraperitoneal administration to male hamsters, compound 1 was prepared prior to use in 10% DMSO, 10% Solutol HS 15, plus 80% PBS in a concentration of 2 mg/mL by weighing 19.65 mg of compound 1 into a new vial and then adding 0.982 mL DMSO into the vial containing the compound and vortexing the vial for 2 min. In addition, 0.982 mL Solutol HS 15 was then added into the vial containing the compound, and the vial was vortexed for 2 min. Also, 7.860 mL of PBS was then added into the vial which was further vortexed for 3 min and sonicated for 0.5 min. Male hamsters weighing 89 g–104 g (N = 18) were purchased from Beijing Weitong Lihua Laboratory Animal Co. Ltd. Hamsters were fasted overnight and fed at 4 h post-dosing. The compound was administered 10 mg/kg (5 mL/kg) via intraperitoneal injection. Sampling was done at 0.25, 0.5, 1, 2, 4, and 6 h post dose, six time points, by terminal bleeding for plasma and lung at each time point. Approximately 150 µL blood/time point was collected into the K2EDTA tube via the jugular vein. The blood sample was put on wet ice and centrifuged to obtain a plasma sample (2,000 g, 5 min under 4°C) within 15 min. Lung collection was performed by making a mid-line incision in the animals’ chest and abdomen, the skin was retracted, and the lung was exposed after cutting off the ribs and removing other organs using surgical scissors and forceps. The lung was removed using surgical scissors and then rinsed with cold saline. The lung was placed in screw-top tubes and then stored under −70°C until analysis. Lung tissue was homogenized for 2 min with two volumes (vol/wt) of PBS (pH 7.4) immediately before analysis by LC-MS/MS.

[6] = tested on: SARS-CoV-2 Delta (B.1.617); assay: microbe, parasite or virus in culture; format: cell-based; settings: Severe acute respiratory syndrome coronavirus 2, Vero C1008, 48 h; read-out: EC50 viral high-content imaging assay
SARS-CoV-2 Mpro = SARS-CoV-2 Mpro (Severe acute respiratory syndrome coronavirus 2, UniProt P0DTC1); assay: biochemical; format: biochemical; settings: Mpro enzymatic assay
[7] = enzyme assay, at least 10-point dose-response curves in duplicate, read-out: CatL IC50
[8] = enzyme assay, at least 10-point dose-response curves in duplicate, read-out: CatB IC50
[9] = enzyme assay, at least 10-point dose-response curves in duplicate, read-out: Thrombin IC50
[10] = single IP dose at 10 mg/kg in male hamster
[11] = single i.p. dose at 10 mg/kg in male hamster

T1 sequence (P07711 114-333): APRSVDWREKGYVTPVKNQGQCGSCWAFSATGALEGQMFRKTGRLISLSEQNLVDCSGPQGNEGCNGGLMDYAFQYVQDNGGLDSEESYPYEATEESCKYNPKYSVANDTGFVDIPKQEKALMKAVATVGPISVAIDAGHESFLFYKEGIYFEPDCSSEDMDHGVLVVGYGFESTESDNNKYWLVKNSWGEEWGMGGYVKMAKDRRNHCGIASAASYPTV

## O=C(CN1C(=O)[C@@H](NC(=O)OCc2ccccc2)COc2ccccc21)N[C@@H](C[C@@H]1CCNC1=O)C(=O)COc1cc(C(F)(F)F)nn1-c1ccc(F)cc1 [Compound 21]
Cathepsin L; [7]
  IC50: > 32 µM
Cathepsin B; [8]
  IC50: 27 µM
thrombin; [9]
  IC50: > 32 µM

## O=C(CN1C(=O)[C@@H](NC(=O)c2ccc3ccccc3n2)COc2ccccc21)N[C@@H](C[C@@H]1CCNC1=O)C(=O)COC(=O)c1c(Cl)cccc1Cl [Compound 20]
Cathepsin L; [7]
  IC50: 23.1 µM
Cathepsin B; [8]
  IC50: 1.8 µM
[1]
  half-life at 0.5 µM: < 2 min
thrombin; [9]
  IC50: > 32 µM

## O=C(CN1C(=O)C(NC(=O)OCc2ccccc2)COc2ccccc21)NC(CC1CCNC1=O)C(=O)COC(=O)c1c(Cl)cccc1Cl (centres unmarked) [Compound 1]
Cathepsin L; as stated in text: no substantial inhibition, read-out: cathepsin L IC50
  IC50: > 15 µM
Cathepsin L; [7]
  IC50: > 32 µM
[2]; […], 100 mg/kg i.p. b.i.d., versus vehicle, P = 0.002
  mean reduction in SARS-CoV-2 sub-genomic RNA (N gene) in lung tissue: 2.0 log
[2]; […], versus vehicle
  mean reduction in SARS-CoV-2 genomic RNA (E gene) in lung tissue: 0.5 log
[2]; hamster, in vivo
  lung histopathology scores (H&E) compared to vehicle-treated SGH: did not observe any significant difference
  reduction in SARS-CoV-2 viral titer from lung tissue: 32.6%
  toxicities or behavioral abnormalities during dosing: no obvious toxicities or behavioral abnormalities
[3]
  EC50: 3.1 µM
SARS-CoV-2 WT (WA1/2020)
  EC50: 2.1 ± 2.1 µM
[4]
  EC50: 0.9 ± 0.9 µM
[5]; lung / plasma, single IP dose at 10 mg/kg in male hamster, read-out: AUClung/AUCplasma
  Kp: 3.2
[5]; lung, single IP dose at 10 mg/kg in male hamster, read-out: lung T1/2 (converted)
  half-life: 48.6 min
[5]; lung, single IP dose at 10 mg/kg in male hamster, read-out: lung Tmax
  Tmax: 30 min
[5]; plasma, single IP dose at 10 mg/kg in male hamster
  Cmax: 990 ng/mL
[5]; plasma, single IP dose at 10 mg/kg in male hamster, read-out: plasma AUCINF
  AUC(0-inf): 1830 ng·h/mL
[5]; plasma, single IP dose at 10 mg/kg in male hamster, read-out: plasma AUClast
  AUC(0-t): 1820 ng·h/mL
[5]; plasma, single IP dose at 10 mg/kg in male hamster, read-out: plasma T1/2 (converted)
  half-life: 44 min
[5]; plasma, single IP dose at 10 mg/kg in male hamster, read-out: plasma Tmax
  Tmax: 15 min
[5]; [10]
  lung AUCINF: 5854 ng·h/g
  lung AUClast: 5818 ng·h/g
  lung Cmax: 3623 ng/g
[5]; [11]
  clinical symptoms during the in-life phase: no abnormal clinical symptoms observed
  concentration achieved in the lung: about 8 µM
Cathepsin B; as stated in text: no substantial inhibition, read-out: cathepsin B IC50
  IC50: > 15 µM
Cathepsin B; [8]
  IC50: 18 µM
[1]
  half-life at 0.5 µM: < 2 min
[6]
  EC50: 3 ± 2.4 µM
thrombin; [9]
  IC50: > 32 µM

## CC(C)C[C@H](NC(=O)OCc1ccccc1)C(=O)N[C@@H](C[C@@H]1CCNC1=O)C(O)S(=O)(=O)O (some centres unmarked) [GC-376, reference compound]
Cathepsin L
  IC50: 5e-05 µM
SARS-CoV-2 WT (WA1/2020)
  EC50: 0.3 ± 0.5 µM
[4]
  EC50: 0.4 ± 0.5 µM
Cathepsin B
  IC50: 0.037 ± 0.015 µM
[6]
  EC50: 0.6 µM
thrombin
  IC50: > 10 µM

## N[C@H]1COc2ccccc2N(CC(=O)N[C@@H](C[C@@H]2CCNC2=O)C(=O)COC(=O)c2c(Cl)cccc2Cl)C1=O [Compound 9]
[1]; mouse
  half-life at 0.5 µM: < 2 min

## CC(C)(C)[C@H](NC(=O)C(F)(F)F)C(=O)N1C[C@H]2[C@@H]([C@H]1C(=O)N[C@H](C#N)C[C@@H]1CCNC1=O)C2(C)C [nirmatrelvir, reference compound]
[2]; […], 50 mg/kg i.p. b.i.d., versus vehicle
  reduction in N sub-genomic RNA in lung tissue: 5.2 fold
[2]; […], versus vehicle
  mean reduction in SARS-CoV-2 genomic RNA (E gene) in lung tissue: 3.0 log

## O=C(CN1C(=O)[C@@H](NC(=O)c2ccccc2)COc2ccccc21)N[C@@H](C[C@@H]1CCNC1=O)C(=O)COC(=O)c1c(Cl)cccc1Cl [Compound 19]
Cathepsin B; [8]
  IC50: 13 µM
[1]
  half-life at 0.5 µM: < 2 min

## COc1cccc2[nH]c(C(=O)N[C@@H](CC(C)C)C(=O)N[C@@H](C[C@@H]3CCNC3=O)C(=O)COC(=O)c3c(Cl)cccc3Cl)cc12 [Compound 18, reference compound]
Cathepsin L; [7]
  IC50: 0.0018 µM
Cathepsin B; [8]
  IC50: 0.024 ± 0.0075 µM
[1]
  half-life at 0.5 µM: < 2 min
SARS-CoV-2 Mpro
  time to achieve maximum inhibition: ≤ 10 min
